# Experimental data from patent US20230061859A1, “PYRIDO[2,3-D]PYRIMIDINE HIV-1 REVERSE TRANSCRIPTASE INHIBITOR WB3, PREPARATION METHOD AND APPLICATION THEREOF” (SHAN DONG UNIVERSITY, priority 2020, published 2023).
# Legend:
# [1] = system: HIV-1 mutant strain RV5 (M230L); experiment: Anti-HIV activity, luciferase single-round infection of TZM-bl cells, RV-5; assay type: cell-based; conditions: Human immunodeficiency virus 1, TZM-bl, read-out: EC50 RV-5
# Procedure: (§1) The target compound WB3 was evaluated its activity against HIV-1 NL4-3, HIV-1 mutant strains GH9 (K101P+K103N+V108I), RV1 (K101E+Y181V), RV2 (K101E+Y181C+G190A), RV3 (K101E+Y181C+E138K), RV4 (L100I+M230I) and RV5 (M230L). Rilpivirine (RPV) was selected as control drug.
# (§2) Inhibition of HIV-1 infection was measured as reduction in luciferase gene expression after a single round of virus infection of TZM-bl cells. Briefly, 200 TCID50 of virus (NL4-3, GH9, RV-1, RV-2, RV-3, RV-4 and RV-5) was used to infect TZM-bl cells in the presence of various concentrations of compounds. Two days after infection, the culture medium was removed from each well and 100 μL of Bright Glo reagent (Promega, Luis Obispo, Calif.) was added to the cells for measurement of luminescence with a Victor 2 luminometer. […] The cytotoxicity of compounds was determined using a colorimetric 2,3-bis-(2-methoxy-4-nitro-5-sulfophenyl)-2H-tetrazolium-5-carboxanilide (XTT) assay. An amount of 100 μL of the test compounds at graded concentrations was added to equal volumes of cells (5×10^5/mL) in wells of a 96-well plate. Incubation at 37° C. for four days, then 50 μL of XTT solution (1 mg/mL) containing 0.02 μM phenazine methosulfate (PMS) was added. After four hours, the absorbance at 450 nm was measured with an ELISA reader. The CC50 values were calculated using the CalsuSyn computer program as described above.
# [2] = system: HIV-1 mutant strain RV4 (L100I+M230I); experiment: Anti-HIV activity, luciferase single-round infection of TZM-bl cells, RV-4; assay type: cell-based; conditions: Human immunodeficiency virus 1, TZM-bl, read-out: EC50 RV-4
# Procedure: as §1, §2
# [3] = system: HIV-1 mutant strain RV3 (K101E+Y181C+E138K); experiment: Anti-HIV activity, luciferase single-round infection of TZM-bl cells, RV-3; assay type: cell-based; conditions: Human immunodeficiency virus 1, TZM-bl, read-out: EC50 RV-3
# Procedure: as §1, §2
# [4] = system: HIV-1 mutant strain RV2 (K101E+Y181C+G190A); experiment: Anti-HIV activity, luciferase single-round infection of TZM-bl cells, RV-2; assay type: cell-based; conditions: Human immunodeficiency virus 1, TZM-bl, read-out: EC50 RV-2
# Procedure: as §1, §2
# [5] = system: HIV-1 mutant strain GH9 (K101P+K103N+V108I); experiment: Anti-HIV activity, luciferase single-round infection of TZM-bl cells, GH9; assay type: cell-based; conditions: for EC50: Human immunodeficiency virus 1, TZM-bl, read-out: EC50 GH9
# Procedure: as §1, §2
# [6] = Cytotoxicity, XTT assay; assay type: cell-based; conditions: human, mock-infected TZM-bl cells
# Procedure: as §2
# [7] = system: HIV-1 NL4-3 (wild-type HIV-1 viral strain); experiment: Anti-HIV activity, luciferase single-round infection of TZM-bl cells, NL4-3; assay type: cell-based; conditions: Human immunodeficiency virus 1, NL43, wild-type HIV-1 NL4-3
# Procedure: as §1, §2
# [8] = system: HIV-1 mutant strain RV1 (K101E+Y181V); experiment: Anti-HIV activity, luciferase single-round infection of TZM-bl cells, RV-1; assay type: cell-based; conditions: Human immunodeficiency virus 1, TZM-bl, read-out: EC50 RV-1
# Procedure: as §1, §2
# [9] = Pharmacokinetics by single iv and po administration in Wistar rats; assay type: in vivo
# Procedure: Then, WB3 was evaluated its pharmacokinetics profiles by single iv and po administration in Wistar rats. […] These favorable PK results are sufficient to support the ability of WB3 to become an orally bioavailable NNRTIs drug candidate.
# All the samples were then centrifuged at 8000 rpm for 8 min to separate plasma, which was stored at −78° C. until analysis. […] Standard curves for WB3 in blood were generated by the addition of various concentrations of WB3 together with internal standard to blank plasma.
# The plasma pharmacokinetic data were analyzed by using the […] of DAS 2.0 pharmacokinetic program. The main pharmacokinetic parameters (Cmax, AUC, Tmax, T1/2, and CL) were calculated.
Compound,EC50 [1] [nM],EC50 [2] [nM],EC50 [3] [nM],EC50 [4] [nM],"fold potency versus rilpivirine against GH9 ([5]; EC50 ratio to rilpivirine, GH9 strain)",EC50 [5] [nM],CC50 at 4 days [6] [nM],EC50 [7] [nM],EC50 [8] [nM],CL ([9]; iv 2 mg/kg (Table 2)) [mL],"Cmax ([9]; male, rat, plasma, iv 2 mg/kg) [ng/mL]"
Cc1cc(/C=C/C#N)cc(C)c1Oc1nc(NC2CCN(Cc3ccc(S(C)(=O)=O)cc3)CC2)nc2ncccc12 [WB3],6.15 ± 2.29,9.32 ± 2.46,> 106,29 ± 10.9,up to 200 fold,1.37,> 44,1.16,18.3 ± 5.8,20.6 ± 4.50,1490
"Cc1cc(/C=C/C#N)cc(C)c1Nc1ccnc(Nc2ccc(C#N)cc2)n1 [RPV, Rilpivirine, reference compound]",10.4 ± 3.27,9.82 ± 2.35,88.1 ± 37.4,24.3 ± 5.73,,> 273,> 341,0.96 ± 0.3,45.6 ± 12.6,,
